Measurements: article PMC5218480 (PLoS ONE, 2017)

System: MV-4-11 cells
Assay: Gene expression microarray analysis (Affymetrix PrimeView) and GSEA
Type: cell-based, human
Set-up: RFU PODN (11730768_x_at) / Fold change /veh PODN (11730768_x_at) / RFU LINC00158 (11744669_a_at) / Fold change /veh LINC00158 (11744669_a_at) / RFU DUSP10 (11751237_a_at) / Fold change /veh DUSP10 (11751237_a_at) / RFU ID3 (11757404_x_at) / Fold change /veh ID3 (11757404_x_at) / RFU PLEKHG5 (11737974_s_at) / Fold change /veh PLEKHG5 (11737974_s_at) / RFU LRRC4B (11730491_at) / Fold change /veh LRRC4B (11730491_at) / RFU GIMAP4 (11747438_a_at) / Fold change /veh GIMAP4 (11747438_a_at) / RFU KRT8 (11758183_x_at) / Fold change /veh KRT8 (11758183_x_at) / RFU CNN1 (11734310_a_at) / Fold change /veh CNN1 (11734310_a_at) / RFU VPS37D (11726825_at) / Fold change /veh VPS37D (11726825_at) / RFU C10orf10 (11716522_x_at) / Fold change /veh C10orf10 (11716522_x_at) / RFU KIR2DL2 /// KIR2DL4 /// KIR2DL5A /// KIR2DL5B /// KIR2DS1 /// KIR2DS2 /// KIR2DS3 /// KIR2DS4 /// KIR3DL3 /// KIR3DL3 /// KIR3DS1 (11738374_at) / Fold change /veh KIR2DL2 /// KIR2DL4 /// KIR2DL5A /// KIR2DL5B /// KIR2DS1 /// KIR2DS2 /// KIR2DS3 /// KIR2DS4 /// KIR3DL3 /// KIR3DL3 /// KIR3DS1 (11738374_at) / RFU C1QL1 (11718748_at) / Fold change /veh C1QL1 (11718748_at) / RFU TMPRSS4 (11747572_a_at) / Fold change /veh TMPRSS4 (11747572_a_at) / RFU HAMP (11756126_x_at) / Fold change /veh HAMP (11756126_x_at) / RFU RNFT2 (11725882_a_at) / Fold change /veh RNFT2 (11725882_a_at) / RFU NR4A2 (11747474_a_at) / Fold change /veh NR4A2 (11747474_a_at) / RFU ABCC12 (11746883_a_at) / Fold change /veh ABCC12 (11746883_a_at) / RFU TMEM136 (11760407_x_at) / Fold change /veh TMEM136 (11760407_x_at) / RFU CLDN22 /// WWC2 (11732394_at) / Fold change /veh CLDN22 /// WWC2 (11732394_at) / RFU HLA-DPB1 (11760878_x_at) / Fold change /veh HLA-DPB1 (11760878_x_at) / RFU SPINT1 (11716480_a_at) / Fold change /veh SPINT1 (11716480_a_at) / RFU GAP43 (11754022_s_at) / Fold change /veh GAP43 (11754022_s_at) / RFU A4GNT (11735810_at) / Fold change /veh A4GNT (11735810_at) / RFU PRB3 (11715151_x_at) / Fold change /veh PRB3 (11715151_x_at) / RFU TUBB4B (11761932_at) / Fold change /veh TUBB4B (11761932_at) / RFU CAPN14 (11732068_a_at) / Fold change /veh CAPN14 (11732068_a_at) / RFU TMCC2 (11721928_a_at) / Fold change /veh TMCC2 (11721928_a_at) / RFU IRGQ (11745062_a_at) / Fold change /veh IRGQ (11745062_a_at) / RFU FAM174B (11720279_a_at) / Fold change /veh FAM174B (11720279_a_at) / RFU TMPRSS4 (11748680_a_at) / Fold change /veh TMPRSS4 (11748680_a_at) / RFU FAM212B (11763350_a_at) / Fold change /veh FAM212B (11763350_a_at) / RFU PLEKHG5 (11743358_a_at) / Fold change /veh PLEKHG5 (11743358_a_at) / RFU ZSCAN30 (11745921_a_at) / Fold change /veh ZSCAN30 (11745921_a_at) / RFU CMKLR1 (11741424_a_at) / Fold change /veh CMKLR1 (11741424_a_at) / RFU LOC101060620 /// MAPK8IP1 (11723275_at) / Fold change /veh LOC101060620 /// MAPK8IP1 (11723275_at) / RFU SPTSSB (11747773_x_at) / Fold change /veh SPTSSB (11747773_x_at) / RFU PRSS12 (11739890_at) / Fold change /veh PRSS12 (11739890_at) / RFU BIN1 (11741810_x_at) / Fold change /veh BIN1 (11741810_x_at) / RFU WNT11 (11732464_a_at) / Fold change /veh WNT11 (11732464_a_at) / RFU C10orf10 (11716521_a_at) / Fold change /veh C10orf10 (11716521_a_at) / RFU C5orf56 (11738089_at) / Fold change /veh C5orf56 (11738089_at) / RFU CYB561 (11721691_x_at) / Fold change /veh CYB561 (11721691_x_at) / RFU ANKRD19P (11752326_a_at) / Fold change /veh ANKRD19P (11752326_a_at) / RFU OR2T12 /// OR2T33 /// OR2T8 (11738714_s_at) / Fold change /veh OR2T12 /// OR2T33 /// OR2T8 (11738714_s_at) / RFU VCAN (11748164_a_at) / Fold change /veh VCAN (11748164_a_at) / RFU JSRP1 (11732532_at) / Fold change /veh JSRP1 (11732532_at) / RFU KRTAP10-11 (11738290_x_at) / Fold change /veh KRTAP10-11 (11738290_x_at) / RFU MYO3A (11730013_a_at) / Fold change /veh MYO3A (11730013_a_at) / RFU EBF3 (11725865_a_at) / Fold change /veh EBF3 (11725865_a_at) / RFU CAMK2N1 (11719241_x_at) / Fold change /veh CAMK2N1 (11719241_x_at) / RFU C5orf56 (11738088_a_at) / Fold change /veh C5orf56 (11738088_a_at) / RFU OLFML3 (11715873_a_at) / Fold change /veh OLFML3 (11715873_a_at) / RFU LOC100653217 /// NTM (11731650_a_at) / Fold change /veh LOC100653217 /// NTM (11731650_a_at) / RFU MAPK11 (11762145_a_at) / Fold change /veh MAPK11 (11762145_a_at) / RFU FIZ1 (11724087_x_at) / Fold change /veh FIZ1 (11724087_x_at) / RFU OASL (11726364_x_at) / Fold change /veh OASL (11726364_x_at) / RFU SOX15 (11748057_x_at) / Fold change /veh SOX15 (11748057_x_at) / RFU CD79A (11719716_a_at) / Fold change /veh CD79A (11719716_a_at) / RFU HIST1H1D (11736915_at) / Fold change /veh HIST1H1D (11736915_at) / RFU CASKIN2 (11723855_a_at) / Fold change /veh CASKIN2 (11723855_a_at) / RFU LOC730098 (11760151_x_at) / Fold change /veh LOC730098 (11760151_x_at) / RFU OR4N2 (11742367_at) / Fold change /veh OR4N2 (11742367_at) / RFU PRRT2 (11749266_a_at) / Fold change /veh PRRT2 (11749266_a_at) / RFU SNX32 (11753110_a_at) / Fold change /veh SNX32 (11753110_a_at) / RFU CDHR5 (11726645_a_at) / Fold change /veh CDHR5 (11726645_a_at) / RFU RCAN1 (11760418_a_at) / Fold change /veh RCAN1 (11760418_a_at) / RFU FAM167A (11723789_a_at) / Fold change /veh FAM167A (11723789_a_at) / RFU FAM26E (11764081_at) / Fold change /veh FAM26E (11764081_at) / RFU ISYNA1 (11749810_s_at) / Fold change /veh ISYNA1 (11749810_s_at) / RFU ACY1 (11761880_at) / Fold change /veh ACY1 (11761880_at) / RFU 11764098_at / Fold change /veh 11764098_at / RFU SAMD14 (11745864_x_at) / Fold change /veh SAMD14 (11745864_x_at) / RFU NPB (11741838_a_at) / Fold change /veh NPB (11741838_a_at) / RFU TMPRSS6 (11731388_a_at) / Fold change /veh TMPRSS6 (11731388_a_at) / RFU KRTAP10-2 (11738614_at) / Fold change /veh KRTAP10-2 (11738614_at) / RFU ARHGAP8 /// PRR5-ARHGAP8 (11727945_x_at) / Fold change /veh ARHGAP8 /// PRR5-ARHGAP8 (11727945_x_at) / RFU KRTAP5-7 /// NADSYN1 (11734609_at) / Fold change /veh KRTAP5-7 /// NADSYN1 (11734609_at) / RFU RASL12 (11751679_a_at) / Fold change /veh RASL12 (11751679_a_at) / RFU CDKN2B (11736163_a_at) / Fold change /veh CDKN2B (11736163_a_at) / RFU PRF1 (11729649_at) / Fold change /veh PRF1 (11729649_at) / RFU, ZNF638 /// ZNF638-IT1 / Fold change vs veh, ZNF638 /// ZNF638-IT1 / RFU, PANK3 / Fold change vs veh, PANK3 / RFU, SH3YL1 / Fold change vs veh, SH3YL1 / RFU, ZEB2 / Fold change vs veh, ZEB2 / RFU, NRIP1 / Fold change vs veh, NRIP1 / RFU, PTTG1IP / Fold change vs veh, PTTG1IP / RFU, CAPN2 / Fold change vs veh, CAPN2 / RFU, MED14 / Fold change vs veh, MED14 / RFU, SNORA58 / Fold change vs veh, SNORA58 / RFU, C1orf63 / Fold change vs veh, C1orf63 / RFU, LRRFIP1 / Fold change vs veh, LRRFIP1 / RFU, NDUFAF7 / Fold change vs veh, NDUFAF7 / RFU, SLC12A2 / Fold change vs veh, SLC12A2 / RFU, IBTK / Fold change vs veh, IBTK / RFU, ESF1 / Fold change vs veh, ESF1 / Fold change vs veh, TMEM50B / RFU, TAOK1 / Fold change vs veh, TAOK1 / RFU, ACBD3 / Fold change vs veh, ACBD3 / RFU, TMA16 / Fold change vs veh, TMA16 / RFU, RWDD3 / Fold change vs veh, RWDD3 / RFU, BCAT1 / Fold change vs veh, BCAT1 / RFU, EDEM3 / Fold change vs veh, EDEM3 / RFU, TMEM33 / Fold change vs veh, TMEM33 / RFU, WDR75 / Fold change vs veh, WDR75 / RFU, AHCTF1 / Fold change vs veh, AHCTF1 / RFU, TFRC / Fold change vs veh, TFRC / RFU, ZDHHC17 / Fold change vs veh, ZDHHC17 / RFU, NOM1 / Fold change vs veh, NOM1 / RFU, ARL8B / Fold change vs veh, ARL8B / RFU, ZBTB11 / Fold change vs veh, ZBTB11 / RFU, TAMM41 / Fold change vs veh, TAMM41 / RFU, KIAA1704 /// LOC100996395 / Fold change vs veh, KIAA1704 /// LOC100996395 / RFU, ING1 / Fold change vs veh, ING1 / RFU, TRMT61B / Fold change vs veh, TRMT61B / RFU, FUBP3 / Fold change vs veh, FUBP3 / RFU, TP53 / Fold change vs veh, TP53 / RFU, TNKS2 / Fold change vs veh, TNKS2 / RFU, ZFP14 / Fold change vs veh, ZFP14 / RFU, ACTR2 / Fold change vs veh, ACTR2 / RFU, PPP3R1 / Fold change vs veh, PPP3R1 / RFU, PIK3R1 / Fold change vs veh, PIK3R1 / RFU, HNRNPA1 / Fold change vs veh, HNRNPA1 / RFU, RNF170 / Fold change vs veh, RNF170 / RFU, ZNF28 / Fold change vs veh, ZNF28 / RFU, RNGTT / Fold change vs veh, RNGTT / RFU, OGT / Fold change vs veh, OGT / RFU, BRD1 / Fold change vs veh, BRD1 / RFU, MARS / Fold change vs veh, MARS / RFU, ZNF655 / Fold change vs veh, ZNF655 / RFU, FAHD1 / Fold change vs veh, FAHD1 / RFU, BDP1 / Fold change vs veh, BDP1 / RFU, LRRCC1 / Fold change vs veh, LRRCC1 / RFU, ARID1A / Fold change vs veh, ARID1A / RFU, ZNF146 / Fold change vs veh, ZNF146 / RFU, ZNF330 / Fold change vs veh, ZNF330 / RFU, GPN3 / Fold change vs veh, GPN3 / RFU, C9orf123 / Fold change vs veh, C9orf123 / RFU, N4BP2L2 / Fold change vs veh, N4BP2L2 / RFU, ARFIP1 / Fold change vs veh, ARFIP1 / RFU, FAM179B / Fold change vs veh, FAM179B / RFU, BCL10 / Fold change vs veh, BCL10 / RFU, UHRF1BP1L / Fold change vs veh, UHRF1BP1L / RFU, BET1 / Fold change vs veh, BET1 / RFU, CNOT2 / Fold change vs veh, CNOT2 / RFU, ZNF268 / Fold change vs veh, ZNF268 / Fold change vs veh, ZNF507 / RFU, DGCR2 / Fold change vs veh, DGCR2 / RFU, WDSUB1 / Fold change vs veh, WDSUB1 / Fold change vs veh, HSP90B1 /// MIR3652 / RFU, ADSS / Fold change vs veh, ADSS / RFU, GK / Fold change vs veh, GK / RFU, ZNF148 / Fold change vs veh, ZNF148 / RFU, TAF9 / Fold change vs veh, TAF9 / RFU, SLC1A5 / Fold change vs veh, SLC1A5 / RFU, SLMO2 / Fold change vs veh, SLMO2 / RFU, ABCC4 / Fold change vs veh, ABCC4 / RFU, LOC101060439 /// RAP1B / Fold change vs veh, LOC101060439 /// RAP1B / RFU, RFX7 / Fold change vs veh, RFX7 / RFU, GTPBP10 / Fold change vs veh, GTPBP10 / RFU, CNEP1R1 / Fold change vs veh, CNEP1R1 / RFU, BIVM-ERCC5 /// ERCC5 / Fold change vs veh, BIVM-ERCC5 /// ERCC5 / RFU, ILF3 / Fold change vs veh, ILF3 / RFU 11762660_at / Fold change /veh 11762660_at / RFU VCAN (11757783_s_at) / Fold change /veh VCAN (11757783_s_at) / RFU DDX43 (11728927_at) / Fold change /veh DDX43 (11728927_at) / RFU KRT8 (11758188_x_at) / Fold change /veh KRT8 (11758188_x_at) / RFU NKD1 (11759106_at) / Fold change /veh NKD1 (11759106_at) / RFU SRD5A1 (11742802_a_at) / Fold change /veh SRD5A1 (11742802_a_at) / RFU TPSAB1 /// TPSB2 (11721975_s_at) / Fold change /veh TPSAB1 /// TPSB2 (11721975_s_at) / RFU GSTM3 (11746129_a_at) / Fold change /veh GSTM3 (11746129_a_at) / RFU IL23R (11737362_x_at) / Fold change /veh IL23R (11737362_x_at) / RFU TMEM51 (11727254_a_at) / Fold change /veh TMEM51 (11727254_a_at) / RFU PIWIL2 (11732686_x_at) / Fold change /veh PIWIL2 (11732686_x_at) / RFU ORM1 (11744905_x_at) / Fold change /veh ORM1 (11744905_x_at) / RFU CCDC152 (11743942_at) / Fold change /veh CCDC152 (11743942_at) / RFU ECM1 (11717891_a_at) / Fold change /veh ECM1 (11717891_a_at) / RFU IL23R (11748794_a_at) / Fold change /veh IL23R (11748794_a_at) / RFU TNFAIP8L3 (11732012_x_at) / Fold change /veh TNFAIP8L3 (11732012_x_at) / RFU MBOAT4 (11741988_at) / Fold change /veh MBOAT4 (11741988_at) / RFU 11764193_at / Fold change /veh 11764193_at / RFU TMEM53 (11763286_at) / Fold change /veh TMEM53 (11763286_at) / RFU MAGEB2 (11727129_at) / Fold change /veh MAGEB2 (11727129_at) / RFU TMEM200A (11744735_a_at) / Fold change /veh TMEM200A (11744735_a_at) / RFU CCDC152 (11751479_a_at) / Fold change /veh CCDC152 (11751479_a_at) / RFU FAM211A (11726209_a_at) / Fold change /veh FAM211A (11726209_a_at) / RFU RGS16 (11746705_a_at) / Fold change /veh RGS16 (11746705_a_at) / RFU VCAN (11755009_s_at) / Fold change /veh VCAN (11755009_s_at) / RFU RHOB (11743442_s_at) / Fold change /veh RHOB (11743442_s_at) / RFU RGS16 (11720943_a_at) / Fold change /veh RGS16 (11720943_a_at) / RFU RGS16 (11720944_at) / Fold change /veh RGS16 (11720944_at) / RFU, VPS4B / Fold change vs veh, VPS4B / RFU, CREB1 / Fold change vs veh, CREB1 / RFU, DNAJC13 / Fold change vs veh, DNAJC13 / RFU, GNAQ / Fold change vs veh, GNAQ / RFU, CDK5R1 / Fold change vs veh, CDK5R1 / RFU, ZRANB3 / Fold change vs veh, ZRANB3 / RFU, CUL4A / Fold change vs veh, CUL4A / RFU, CCNY / Fold change vs veh, CCNY / RFU, UFL1 / Fold change vs veh, UFL1 / RFU, COG3 / Fold change vs veh, COG3 / RFU, DIAPH2 / Fold change vs veh, DIAPH2 / RFU, SKA2 / Fold change vs veh, SKA2 / RFU, AFF3 / Fold change vs veh, AFF3 / RFU, LMF1 / Fold change vs veh, LMF1 / RFU, IPO11 / Fold change vs veh, IPO11 / RFU, DFFB / Fold change vs veh, DFFB / RFU, FOXP1 / Fold change vs veh, FOXP1 / RFU, CARD8 / Fold change vs veh, CARD8 / RFU, STRN3 / Fold change vs veh, STRN3 / RFU, ADK / Fold change vs veh, ADK / RFU, RASSF2 / Fold change vs veh, RASSF2 / RFU, WIPF1 / Fold change vs veh, WIPF1 / RFU, LARP1B / Fold change vs veh, LARP1B / RFU, RASA1 / Fold change vs veh, RASA1 / RFU, RB1 / Fold change vs veh, RB1 / RFU, PPFIA1 / Fold change vs veh, PPFIA1 / RFU, MAT2A / Fold change vs veh, MAT2A / RFU, CCT5 / Fold change vs veh, CCT5 / RFU, WDR92 / Fold change vs veh, WDR92 / RFU, CUX1 / Fold change vs veh, CUX1 / RFU, TTC7A / Fold change vs veh, TTC7A / RFU, TMEM135 / Fold change vs veh, TMEM135 / RFU, DEPTOR / Fold change vs veh, DEPTOR / RFU, CPM / Fold change vs veh, CPM / RFU, DNAJB6 / Fold change vs veh, DNAJB6 / RFU, CACNA2D3 / Fold change vs veh, CACNA2D3 / RFU, DTX4 / Fold change vs veh, DTX4 / RFU, TFCP2 / Fold change vs veh, TFCP2 / RFU, GMCL1 /// GMCL1P1 / Fold change vs veh, GMCL1 /// GMCL1P1 / RFU, AEBP2 / Fold change vs veh, AEBP2 / RFU, SNHG1 /// SNORD22 /// SNORD25 /// SNORD26 /// SNORD27 /// SNORD28 /// SNORD29 /// SNORD31 / Fold change vs veh, SNHG1 /// SNORD22 /// SNORD25 /// SNORD26 /// SNORD27 /// SNORD28 /// SNORD29 /// SNORD31 / Fold change (Aza/veh), C12orf56 (ProbeSet 11735607_a_at) / Fold change (ACY-1035/veh), C12orf56 (ProbeSet 11735607_a_at) / Fold change (Aza/veh), FGFR1OP (ProbeSet 11751329_s_at) / Fold change (ACY-1035/veh), FGFR1OP (ProbeSet 11751329_s_at) / Fold change (Aza/veh), VPS36 (ProbeSet 11739960_a_at) / Fold change (ACY-1035/veh), VPS36 (ProbeSet 11739960_a_at) / RFU SYPL1 (11715823_x_at) / Fold change /veh SYPL1 (11715823_x_at) / RFU IGFBP7 (11715501_s_at) / Fold change /veh IGFBP7 (11715501_s_at) / RFU REEP3 (11722064_at) / Fold change /veh REEP3 (11722064_at) / RFU IGLL1 (11728026_x_at) / Fold change /veh IGLL1 (11728026_x_at): dose or concentration left out as unconfirmed
Details: MV-4-11 cells, 48 hours

## Nc1ccc(-c2cccs2)cc1NC(=O)c1ccc2c(c1)cc(C1CC1)n2CCN1CCOCC1 [ACY-1035]
  Fold change /veh FIZ1 (11724087_x_at): 1.06
